{"source": "paper PMC12766724", "about": "“Synthesis, Anthelmintic Activity, and Mechanism of Action of 5‑Aryl‑1H‑indoles” (Journal of Agricultural and Food Chemistry, 2025)", "assay_type_in_all_cases": "in vivo, Caenorhabditis elegans", "key": {"[1]": {"system": "mitochondrial membrane potential of C. elegans young adults", "assay": "Mitochondrial membrane potential measurement", "settings": "100 μM; 24 h", "procedure": "After 24 h, the compounds were washed away. Then, the mitochondrial membrane potential was measured using a specialized fluorescent dye (kit MAK147, Sigma-Aldrich). The kit was used according to the manufacturer’s instructions with modified incubation temperature and time (20 °C, 4 h) to account for the fact that living intact worms were used instead of cell cultures. , Dyed worms (approximately 200 per well) were distributed onto a black 96-well plate, and the fluorescence was measured using a Tecan Infinite 200 Pro plate reader.\nDetermining the mechanism of action of compounds is always challenging; however, the nature of their effect, as well as the structural similarity to compounds with known properties, can provide useful insights. One of our hypotheses was that the compounds might interfere with energy production. We based this assumption on the behavior of compound-treated worms (delayed development, lower fecundity, and relatively rapid decrease in motility rates but not necessarily death). Impaired mitochondrial function would be accompanied by a decrease in mitochondrial membrane potential (MMP)."}, "[2]": {"system": "C. elegans MCII mutant RP2699", "assay": "Acute motility of young adults on WMicrotracker ONE", "settings": "50 μM; 24 h", "procedure": "(§1) The effect of compounds on C. elegans N2 and SDH mutant strains was measured in a similar manner. Briefly, for evaluation of the acute effect of the compounds, age-synchronized young adults of each strain, kept in S complete medium supplemented with E. coli OP50 (3 mg/mL, fresh weight), were transferred onto microtiter plates (96-well, U bottom), and their initial motility was measured for 30 min. […] Afterward, the compounds were washed away, and worms, supplemented with fresh liquid media and food, were distributed onto 96-well plates and allowed to recover. Their activity was measured using WMicrotracker ONE at the indicated time points.\n(§2) To experimentally support this promising initial finding, we tested the effect of i-19 against several C. elegans MCII mutant strains. These nematodes carry point mutations that result in amino acid changes in regions of subunits SDHC and SDHD that contribute to the formation of the ubiquinone-binding pocket, thereby influencing its shape and the ability of inhibitors to interact with the protein. […] The compounds were tested in multiple setups. At first, young adults were exposed to higher doses (100, 50, and 10 μM) of the compounds for up to 48 h, and changes in motility were evaluated using WMicrotracker. For both compounds, we observed a less pronounced decrease in movement rates of MCII mutants compared to wild-type worms, in both a dose- and time-dependent manner (Figure )."}, "[3]": {"system": "C. elegans MCII mutant RP2700", "assay": "Acute motility of young adults on WMicrotracker ONE", "settings": "50 μM; 24 h", "procedure": "as §1, §2"}, "[4]": {"system": "C. elegans wild-type N2", "assay": "Acute motility of young adults on WMicrotracker ONE", "settings": "50 μM; 24 h", "procedure": "as §1, §2"}, "[5]": {"system": "C. elegans MCII mutant RP2702", "assay": "Acute motility of young adults on WMicrotracker ONE", "settings": "50 μM; 24 h", "procedure": "as §1, §2"}, "[6]": {"system": "C. elegans complex II mutant RP2699", "assay": "Scoring of developmental rates, L1 exposed 5 days", "source_text": "(§3) Dead or mostly immobile worms, arrested at the L1 stage, received a score of 1. Populations with severely delayed development were scored as 2. More developmentally advanced, but still obviously delayed worms were given the score of 3. Adult worms that produce a noticeably lower number of progeny received a score of 4. Healthy worms that reproduce normally (i.e., hundreds of eggs and larvae are present) were scored as 5 (see Figure C for representative images). In a typical, correctly prepared experiment, vehicle-treated populations should receive a score of 5, while worms treated with ivermectin (positive control) should receive a score of 1. […]"}, "[7]": {"system": "C. elegans complex II mutant RP2702", "assay": "Scoring of developmental rates, L1 exposed 5 days", "source_text": "as §3"}, "[8]": {"system": "C. elegans complex II mutant RP2700", "assay": "Scoring of developmental rates, L1 exposed 5 days", "source_text": "as §3"}, "[9]": {"system": "C. elegans N2", "assay": "Scoring of developmental rates, L1 exposed 5 days", "set-up": "key: 1 = dead/arrested at L1 … 5 = healthy, normal reproduction", "source_text": "as §3"}}}
{"smiles": "Clc1ccc(-c2ccc3[nH]ccc3c2)cc1", "note": "[i-19]", "values": [{"measurement": "MMP signal lower than in vehicle-treated control animals", "setting": "[1]", "value": "approximately 80%"}, {"measurement": "decrease of mean activity counts", "setting": "[2]", "value": 46, "unit": "%"}, {"measurement": "decrease of mean activity counts", "setting": "[3]", "value": 32, "unit": "%"}, {"measurement": "decrease of mean activity counts", "setting": "[4]", "value": 89, "unit": "%"}, {"measurement": "decrease of mean activity counts", "setting": "[5]", "value": 70, "unit": "%"}, {"measurement": "mean score (1-5)", "setting": "[6]; 1.336 µM", "value": 4.667}, {"measurement": "mean score (1-5)", "setting": "[6]; 1.782 µM", "value": 4.667}, {"measurement": "mean score (1-5)", "setting": "[6]; 2.376 µM", "value": 4.556}, {"measurement": "mean score (1-5)", "setting": "[6]; 3.168 µM", "value": 4.444}, {"measurement": "mean score (1-5)", "setting": "[6]; 4.224 µM", "value": 4.556}, {"measurement": "mean score (1-5)", "setting": "[6]; 5.631 µM", "value": 4.333}, {"measurement": "mean score (1-5)", "setting": "[6]; 7.509 µM", "value": 4.444}, {"measurement": "mean score (1-5)", "setting": "[6]; 10.011 µM", "value": 4.333}, {"measurement": "mean score (1-5)", "setting": "[6]; 13.348 µM", "value": 4.111}, {"measurement": "mean score (1-5)", "setting": "[6]; 17.798 µM", "value": 3.111}, {"measurement": "mean score (1-5)", "setting": "[6]; 23.731 µM", "value": 2.778}, {"measurement": "mean score (1-5)", "setting": "[6]; 31.641 µM", "value": 2.111}, {"measurement": "mean score (1-5)", "setting": "[6]; 42.188 µM", "value": 1}, {"measurement": "mean score (1-5)", "setting": "[6]; 56.25 µM", "value": 1}, {"measurement": "mean score (1-5)", "setting": "[6]; 75 µM", "value": 1}, {"measurement": "mean score (1-5)", "setting": "[6]; 100 µM", "value": 1}, {"measurement": "mean score (1-5)", "setting": "[7]; 1.336 µM", "value": 5}, {"measurement": "mean score (1-5)", "setting": "[7]; 1.782 µM", "value": 5}, {"measurement": "mean score (1-5)", "setting": "[7]; 2.376 µM", "value": 5}, {"measurement": "mean score (1-5)", "setting": "[7]; 3.168 µM", "value": 5}, {"measurement": "mean score (1-5)", "setting": "[7]; 4.224 µM", "value": 4.889}, {"measurement": "mean score (1-5)", "setting": "[7]; 5.631 µM", "value": 4.889}, {"measurement": "mean score (1-5)", "setting": "[7]; 7.509 µM", "value": 5}, {"measurement": "mean score (1-5)", "setting": "[7]; 10.011 µM", "value": 4.444}, {"measurement": "mean score (1-5)", "setting": "[7]; 13.348 µM", "value": 4.889}, {"measurement": "mean score (1-5)", "setting": "[7]; 17.798 µM", "value": 4.667}, {"measurement": "mean score (1-5)", "setting": "[7]; 23.731 µM", "value": 3.889}, {"measurement": "mean score (1-5)", "setting": "[7]; 31.641 µM", "value": 1.111}, {"measurement": "mean score (1-5)", "setting": "[7]; 42.188 µM", "value": 1}, {"measurement": "mean score (1-5)", "setting": "[7]; 56.25 µM", "value": 1}, {"measurement": "mean score (1-5)", "setting": "[7]; 75 µM", "value": 1}, {"measurement": "mean score (1-5)", "setting": "[7]; 100 µM", "value": 1}, {"measurement": "mean score (1-5)", "setting": "[8]; 1.336 µM", "value": 4.778}, {"measurement": "mean score (1-5)", "setting": "[8]; 1.782 µM", "value": 4.778}, {"measurement": "mean score (1-5)", "setting": "[8]; 2.376 µM", "value": 4.667}, {"measurement": "mean score (1-5)", "setting": "[8]; 3.168 µM", "value": 4.889}, {"measurement": "mean score (1-5)", "setting": "[8]; 4.224 µM", "value": 4.778}, {"measurement": "mean score (1-5)", "setting": "[8]; 5.631 µM", "value": 4.778}, {"measurement": "mean score (1-5)", "setting": "[8]; 7.509 µM", "value": 4.667}, {"measurement": "mean score (1-5)", "setting": "[8]; 10.011 µM", "value": 4.667}, {"measurement": "mean score (1-5)", "setting": "[8]; 13.348 µM", "value": 4.333}, {"measurement": "mean score (1-5)", "setting": "[8]; 17.798 µM", "value": 3.667}, {"measurement": "mean score (1-5)", "setting": "[8]; 23.731 µM", "value": 3.444}, {"measurement": "mean score (1-5)", "setting": "[8]; 31.641 µM", "value": 1.111}, {"measurement": "mean score (1-5)", "setting": "[8]; 42.188 µM", "value": 1}, {"measurement": "mean score (1-5)", "setting": "[8]; 56.25 µM", "value": 1}, {"measurement": "mean score (1-5)", "setting": "[8]; 75 µM", "value": 1}, {"measurement": "mean score (1-5)", "setting": "[8]; 100 µM", "value": 1}, {"measurement": "mean score (1-5)", "setting": "[9]; 1.336 µM", "value": 5}, {"measurement": "mean score (1-5)", "setting": "[9]; 1.782 µM", "value": 4.222}, {"measurement": "mean score (1-5)", "setting": "[9]; 2.376 µM", "value": 4.889}, {"measurement": "mean score (1-5)", "setting": "[9]; 3.168 µM", "value": 4.889}, {"measurement": "mean score (1-5)", "setting": "[9]; 4.224 µM", "value": 4.667}, {"measurement": "mean score (1-5)", "setting": "[9]; 5.631 µM", "value": 4.444}, {"measurement": "mean score (1-5)", "setting": "[9]; 7.509 µM", "value": 4.667}, {"measurement": "mean score (1-5)", "setting": "[9]; 10.011 µM", "value": 4.444}, {"measurement": "mean score (1-5)", "setting": "[9]; 13.348 µM", "value": 4}, {"measurement": "mean score (1-5)", "setting": "[9]; 17.798 µM", "value": 2.556}, {"measurement": "mean score (1-5)", "setting": "[9]; 23.731 µM", "value": 1.333}, {"measurement": "mean score (1-5)", "setting": "[9]; 31.641 µM", "value": 1}, {"measurement": "mean score (1-5)", "setting": "[9]; 42.188 µM", "value": 1}, {"measurement": "mean score (1-5)", "setting": "[9]; 56.25 µM", "value": 1}, {"measurement": "mean score (1-5)", "setting": "[9]; 75 µM", "value": 1}, {"measurement": "mean score (1-5)", "setting": "[9]; 100 µM", "value": 1}]}
